How the values were obtained:
[1] = tested on: EBV TK; experiment: Thymidine kinase expression assay (RT and real-time PCR of TK mRNA); assay type: cell-based, Epstein-Barr virus; design: TK expression: dose or concentration left out as unconfirmed
Experimental: To measure the relative level of TK mRNA in various total RNA preparations, reverse transcription and quantitative PCR using real time PCR technology was used. Five micrograms of total RNA was reverse-transcribed using random hexamer primers and Superscript III cDNA synthesis kit (Invitrogen). The cDNA was diluted to a final volume of 60 μl with sterile water, 8 μl of which was then used in each real time PCR reaction in an ABI 7500 Sequencher using SYBR-Green technology. Primers used for the amplification of TK were EBV-TK1-F: 5′-[…]-3′ (SEQ ID NO: 1); EBV-TK1-R: 5′-[…]-3′ (SEQ ID NO: 2). The β-actin mRNA levels in those samples were determined similarly using β-actin-specific primers Actin/hu-F: 5′-[…]-3′ (SEQ ID NO: 3); Actin/hu-R: 5′-[…]-3′ (SEQ ID NO: 4). The relative level of TK expression in a sample was calculated following normalization of β-actin expression level.
(§1) The induction of lytic phase was assayed in EBV-positive lymphoma cell lines exposed to different HDAC inhibitors (HDACi) for 24-48 hrs, then the expression of EBV TK and other EBV transcripts by RT-PCR analysis was quantified. To determine tumor cytotoxic activity of the combination of HDACi and GCV, EBV+ lymphoma cells were exposed to a range of concentrations of HDAC inhibitors and ganciclovir (GCV) for 3 days and then to GCV alone for another 3 days. Efficacy of a particular HDAC inhibitor in the combination treatment approach was then determined by enumerating living cells. A general experimental protocol is described below.
P3HR1 cells were seeded in 60 mm plates containing 3×10^6 cells in 3 ml of fresh growth media. Appropriate concentrations of HDAC inhibitors were added to the plate and cells were incubated in the presence of HDAC inhibitors for 6 h, 24 h, 48 h, or as needed. Cells were harvested by centrifugation and washed once in cold PBS. Total cellular RNA was then extracted. To measure the relative level of TK mRNA in various total RNA preparations, reverse transcription and quantitative PCR using real time PCR analysis were used. See, Ghosh, S. K., Forman, L. W., Akinsheye, I., Perrine, S. P., Faller, D. V.: Short discontinuous sodium butyrate exposure efficiently sensitizes latently EBV infected cells towards nucleoside analogue-mediated growth inhibition, Blood Cells Mol. Diseases (2007), 38:57-65. The relative level of TK expression in a sample was calculated following normalization of β-actin expression level.

[2] = tested on: HIV-1; conditions: OD, converted to pg of protein
Experimental: Virus production (p24 release) was examined in an HIV-1-infected monocyte line. Cells were treated or not treated with HDAC-inhibitors and other compounds. P24 release expressed as optical density (“OD”) (FIG. 13), and then converted to pg of protein (FIG. 14). […] DMSO was vehicle for some of the compounds tested.

[3] = tested on: P3HR1 cells; assay type: cell-based, human; conditions: for effective concentration: in the presence of GCV
Experimental: as §1
The EBV-positive B lymphoma cell line P3HR1 was used in the study. The P3HR1 cell line was originally derived from Burkitt's lymphoma patient. EBV maintains a latent state of replication in this cell line. These cells were maintained in RPMI 1640 with 10% fetal bovine serum containing 100 U penicillin per ml and 100 μg streptomycin per ml.
To test the sensitivity of EBV-positive lymphoma cells towards HDAC inhibitors, P3HR1 cells were treated with HDAC inhibitors in the presence of one anti-viral drug. At the end of the assay, the efficacy of the HDAC inhibitors was assessed by measuring the inhibition of cell growth compared to untreated cells.
(§2) Healthy, actively-growing P3HR1 cells were harvested and resuspended in fresh growth media. Cells were seeded in wells. Appropriate dilutions of HDAC inhibitors were added to certain wells, some of which received an anti-viral drug (such as GCV at 50 μM concentration). At 72 hrs, 800 μl of culture fluid was removed from each well. Wells were then refed with 1.0 ml fresh growth media without HDAC inhibitors. Fresh GCV solution was added to the wells that originally received GCV at the same initial concentration. On day 6, cell morphology was observed under microscope and viable cell counts in each individual wells were determined by trypan blue dye exclusion method using an automated cell counter (Countess, Invitrogen).

[4] = tested on: P3HR1 cells; assay type: cell-based, human; conditions: then GCV for up to 6 days
[5] = tested on: P3HR1 cells; experiment: Titration / toxicity of HDAC inhibitors alone on P3HR1 cells; assay type: cell-based, human
Experimental: as §2

[6] = tested on: P3HR1 cells; assay type: cell-based, human
Experimental: The EBV-positive B lymphoma cell line P3HR1 was used throughout these assays. The P3HR1 cell line was originally derived from Burkitt's lymphoma patient. EBV maintains a latent state of replication in this cell line. Cells were maintained in RPMI 1640 with 10% fetal bovine serum containing 100 U penicillin per ml and 100 μg streptomycin per ml. […] Viable cell counts were measured and toxicity was expressed as percentage of cell growth compared to untreated cells. As shown in FIG. 2A and FIG. 2B, PCV was less toxic to the cells compared to GCV.

[7] = tested on: EBV-TK; experiment: Induction of EBV-TK in EBV-immortalized B-cells and patient-derived tumor cells; assay type: cell-based, Epstein-Barr virus; conditions: for expression of viral thymidine kinase and other viral protein kinases: EBV-infected lymphocytes
Text: In some embodiments, inducing agents include arginine butyrate and/or other histone deacetylase inhibitors. […] This expression of a viral gene can be used as a point for attack by anti-viral agents, allowing for treatment of latent infections.
Treatment of patients with viral-associated tumors such as EBV with inducing agents such as arginine butyrate, to induce the expression of EBV-TK/EBV-PK, and GCV, to eliminate EBV-TK/EBV-PK expressing tumor cells, is an effective, non-toxic therapy. […] Without wishing to be bound by theory, it is believed that just the presence of the EBV genome in latent form would make the tumor susceptible to this combination protocol.

Cc1[nH]c2ccccc2c1CCNCc1ccc(/C=C/C(=O)NO)cc1 [LBH589]
EBV-TK expression in the tumor cells [1]: strongly induced
TK expression level ([1]; compared to optimum concentration of NaB (2.5 mM)): quite high
virus production (p24 release) [2]: active
concentration with activity in combination with GCV comparable to NaB at 1.0 mM [3]: 50 nM
effective concentration [3]: 50 to 100 nM

Nc1ccccc1NC(=O)c1ccc(CNC(=O)OCc2cccnc2)cc1 [MS-275, 3-pyridinylmethyl [[4-[[(2-aminophenyl)amino]carbonyl]phenyl]methyl] carbamate]
EBV-TK expression in the tumor cells [1]: strongly induced
concentration strongly inducing TK expression [1]: ≥ 500 nM
time post treatment at which TK expression was induced [1]: 6 h
concentration with activity in combination with GCV comparable to NaB at 1.0 mM [3]: 500 nM
effective concentration [3]: 200 to 500 nM
exposure sensitizing cells to GCV-mediated effects as efficiently as 72 hr continuous treatment [4]: 24 h

CCCC(=O)[O-].[Na+] [NaB, sodium butyrate]
cell growth, HDAC inhibitor alone ([5]; NaB at concentration higher than 1.0 mM): reduces cell growth to a significant degree
reduction of growth compared to cells treated with NaB or GCV alone ([3]; NaB+GCV): up to 50%
optimal concentration ([3]; combination with GCV): 1.0 mM

Nc1nc2c(ncn2CCC(CO)CO)c(=O)[nH]1 [PCV, penciclovir]
toxicity (percentage of cell growth compared to untreated cells) [6]: less toxic
inhibition of cell growth at higher concentrations ([6]; PCV at higher concentrations, combination with Na-butyrate): did not change significantly

O=C(/C=C/c1cccc(S(=O)(=O)Nc2ccccc2)c1)NO [PXD101]
TK expression [1]: high level

CCC(Nc1ncnc2ccccc12)C(=O)O (stereo not drawn) [RB3]
virus production (p24 release) [2]: levels similar to the control of vehicle alone

O=C(CCCCCCC(=O)Nc1ccccc1)NO [SAHA, suberoyl anilide hydroxamic acid]
TK expression level ([1]; compared with efficient concentrations of butyrate (1.0 mM)): higher level

CCC(C)(C)C(=O)O [ST20, 2,2-dimethyl butyrate]
virus production (p24 release) [2]: levels similar to the control of vehicle alone

O=C(CCCCCN1C(=O)c2cccc3cccc(c23)C1=O)NO [Scriptaid]
effect with GCV in reducing cell growth ([3]; especially at 500 nM and 1 μM): strong synergistic effect

CCCC(CCC)C(=O)O [VA, valproic acid]
efficiency in inducing TK expression ([1]; compared with NaB): less efficient than NaB
activity in combination with GCV on cell growth / cell killing [3]: very similar activity

CCC(=O)CCCCC[C@@H]1NC(=O)[C@H]2CCCCN2C(=O)[C@H]([C@@H](C)CC)NC(=O)[C@H](Cc2cn(OC)c3ccccc23)NC1=O [apicidin]
toxicity to the cells ([5]; 500 nM): very toxic
concentration quite toxic to the cells ([5]; apicidin alone): higher than 200 nM
virus production (p24 release) [2]: active
reduction of cell growth over cells treated with apicidin alone ([3]; 100 nM and 200 nM, with GCV): 40-50%

CC(C)C(N)=O [isobutyramide]
expression of viral thymidine kinase and other viral protein kinases [7]: enhance expression

CCCCCCCC(=O)SCC/C=C/[C@@H]1CC(=O)NCc2nc(cs2)C2=N[C@@](C)(CS2)C(=O)N[C@@H](C(C)C)C(=O)O1 [largazole]
virus production (p24 release) [2]: active

CCCCCCCCCCCCCC(=O)O[C@@H]1[C@@H](C)[C@@]2(O)[C@@H](C=C(CO)C[C@]3(O)C(=O)C(C)=C[C@@H]23)[C@@H]2C(C)(C)[C@]12OC(C)=O [phorbol myristate acetate]
virus production (p24 release) [2]: active

CC(C=CC(=O)NO)=CC(C)C(=O)c1ccc(N(C)C)cc1 (stereo not drawn) [trichostatin A, 7-[4-(dimethylamino)phenyl]-N-hydroxy-4,6-dimethyl-7-oxohepta-2,4-dienamide]
virus production (p24 release) [2]: active

Oxamflatin
activity in combination with GCV on cell growth / cell killing [3]: synergistic activity
activity level (growth suppression) with GCV ([3]; at 200 nM, compared with 1.0 mM NaB): more than what typically seen with 1.0 mM NaB

arginine butyrate
EBV-TK activity ([7]; EBV-immortalized B-cells and patient-derived tumor cells): induces EBV-TK activity
expression of viral thymidine kinase and other viral protein kinases [7]: enhance expression
virus production (p24 release) [2]: active

Source: US12083119B2, “Methods and compositions for treating viral or virally-induced conditions” (VIRACTA SUBSIDIARY, INC., priority 2010, dated 2024)
